{"source": "ChEMBL document CHEMBL5512665", "about": "“A CARM1 Inhibitor Potently Suppresses Breast Cancer Both In Vitro and In Vivo” (J Med Chem, 2024)", "key": {"4T1 [1]": {"test_system": "4T1", "test": "Potentiation of etoposide induced antitumor activity against mouse 4T1 cells implanted in BALB/C mouse assessed as upregulation of CCL5 gene expression at 25 mg/kg,ip administrated daily for 12 days in presence of 8 mg/kg etoposide administration by RT-qPCR analysis", "assay_type": "functional, organism-based", "settings": "time 12.0 day"}, "MDA-MB-231 [2]": {"test_system": "MDA-MB-231", "test": "Antitumor activity against human MDA-MB-231 cells xenografted in BALB/C mouse assessed as reduction of tumor size at 25 mg/kg,ip administrated daily for 11 days", "assay_type": "functional, organism-based", "settings": "time 11.0 day"}, "[3]": {"test": "Toxicity in BALB/C mouse implanted with mouse 4T1 cells assessed as change in lung morphology at 25 mg/kg,ip administrated daily for 14 days", "assay_type": "organism-based", "settings": "in vivo, 336 h, time 14 day"}, "4T1 [4]": {"test_system": "4T1", "test": "Antitumor activity against mouse 4T1 cells implanted in BALB/C mouse assessed as upregulation of IFNalpha gene expression at 25 mg/kg,ip administrated daily for 14 days by RT-qPCR analysis", "assay_type": "functional, organism-based", "settings": "time 14.0 day"}, "MDA-MB-231 [5]": {"test_system": "MDA-MB-231", "test": "Antitumor activity against human MDA-MB-231 cells xenografted in BALB/C mouse assessed as reduction of tumor size at 50 mg/kg,ip administrated daily for 11 days", "assay_type": "functional, organism-based", "settings": "time 11.0 day"}, "[6]": {"test": "Toxicity in BALB/C mouse xenografted with human MDA-MB-231 cells assessed as change in spleen morphology at 25 mg/kg,ip administrated daily for 11 days", "assay_type": "organism-based", "settings": "in vivo, 264 h, time 11 day"}, "MCF7 [7]": {"test_system": "MCF7", "test": "Synergistic antitumor activity against human MCF7 cells xenografted in BALB/C mouse assessed as reduction in tumor weight at 25 mg/kg,ip administrated every other day for 15 days in presence of 5 mg/kg tamoxifen oral administration", "assay_type": "functional, organism-based", "settings": "time 15.0 day"}, "[8]": {"test": "Toxicity in BALB/C mouse xenografted with human MCF7 cells assessed as change in body weight at 25 mg/kg,ip administrated every other day for 15 days in presence of 5 mg/kg tamoxifen oral administration", "assay_type": "organism-based", "settings": "in vivo, 360 h, time 15 day"}, "MCF7 [9]": {"test_system": "MCF7", "test": "Synergistic antitumor activity against human MCF7 cells xenografted in BALB/C mouse assessed as downregulation of GREB1 gene expression at 25 mg/kg,ip administrated every other day for 15 days in presence of 5 mg/kg tamoxifen oral administration by RT-qPCR analysis", "assay_type": "functional, organism-based", "settings": "time 15.0 day"}, "4T1 [10]": {"test_system": "4T1", "test": "Antitumor activity against mouse 4T1 cells implanted in BALB/C mouse assessed as upregulation of IFIT1 gene expression at 25 mg/kg,ip administrated daily for 14 days by RT-qPCR analysis", "assay_type": "functional, organism-based", "settings": "time 14.0 day"}, "4T1 [11]": {"test_system": "4T1", "test": "Antitumor activity against mouse 4T1 cells implanted in BALB/C mouse assessed as downregulation of GREB1 gene expression at 25 mg/kg,ip administrated daily for 14 days by RT-qPCR analysis", "assay_type": "functional, organism-based", "settings": "time 14.0 day"}, "[12]": {"test": "Toxicity in BALB/C mouse implanted with mouse 4T1 cells assessed as change in body weight at 25 mg/kg,ip administrated daily for 12 days in presence of 8 mg/kg etoposide administration", "assay_type": "organism-based", "settings": "in vivo, 288 h, time 12 day"}, "MCF7 [13]": {"test_system": "MCF7", "test": "Synergistic antiproliferative activity against human MCF7 cells assessed as downregulation of N-Myc gene expression at 2.5 uM incubated for 6 hrs in presence of fulvestrant by RT-qPCR analysis", "assay_type": "functional, cell-based"}, "[14]": {"test": "Toxicity in BALB/C mouse implanted with mouse 4T1 cells assessed as change in heart morphology at 25 mg/kg,ip administrated daily for 14 days", "assay_type": "organism-based", "settings": "in vivo, 336 h, time 14 day"}, "MCF7 [15]": {"test_system": "MCF7", "test": "Potentiation of etoposide induced antiproliferative activity against human MCF7 cells assessed as upregulation of DDX58 gene expression at 2.5 uM in presence of etoposide by RT-qPCR analysis", "assay_type": "functional, cell-based"}, "4T1 [16]": {"test_system": "4T1", "test": "Potentiation of etoposide induced antitumor activity against mouse 4T1 cells implanted in BALB/C mouse assessed as upregulation of IFNalpha gene expression at 25 mg/kg,ip administrated daily for 12 days in presence of 8 mg/kg etoposide administration by RT-qPCR analysis", "assay_type": "functional, organism-based", "settings": "time 12.0 day"}, "MCF7 [17]": {"test_system": "MCF7", "test": "Synergistic antiproliferative activity against human MCF7 cells assessed as downregulation of TFF1 gene expression at 2.5 uM incubated for 6 hrs in presence of fulvestrant by RT-qPCR analysis", "assay_type": "functional, cell-based"}, "[18]": {"test": "Toxicity in BALB/C mouse xenografted with human MDA-MB-231 cells assessed as change in lung morphology at 25 mg/kg,ip administrated daily for 11 days", "assay_type": "organism-based", "settings": "in vivo, 264 h, time 11 day"}, "4T1 [19]": {"test_system": "4T1", "test": "Antitumor activity against mouse 4T1 cells implanted in BALB/C mouse assessed as downregulation of C-Myc gene expression at 25 mg/kg,ip administrated daily for 14 days by RT-qPCR analysis", "assay_type": "functional, organism-based", "settings": "time 14.0 day"}, "4T1 [20]": {"test_system": "4T1", "test": "Antitumor activity against mouse 4T1 cells implanted in BALB/C mouse assessed as upregulation of IFIT1 gene expression at 50 mg/kg,ip administrated daily for 14 days by RT-qPCR analysis", "assay_type": "functional, organism-based", "settings": "time 14.0 day"}, "MCF7 [21]": {"test_system": "MCF7", "test": "Antitumor activity against human MCF7 cells xenografted in BALB/C mouse assessed as upregulation of IFNalpha gene expression at 50 mg/kg,ip administrated every other day for 29 days by RT-qPCR analysis", "assay_type": "functional, organism-based", "settings": "time 29.0 day"}, "[22]": {"test": "Toxicity in BALB/C mouse xenografted with human MDA-MB-231 cells assessed as change in spleen morphology at 50 mg/kg,ip administrated daily for 11 days", "assay_type": "organism-based", "settings": "in vivo, 264 h, time 11 day"}, "4T1 [23]": {"test_system": "4T1", "test": "Antitumor activity against mouse 4T1 cells implanted in BALB/C mouse assessed as downregulation of GREB1 gene expression at 50 mg/kg,ip administrated daily for 14 days by RT-qPCR analysis", "assay_type": "functional, organism-based", "settings": "time 14.0 day"}, "MCF7 [24]": {"test_system": "MCF7", "test": "Synergistic antiproliferative activity against human MCF7 cells assessed as inhibition of cell growth at 2.5 uM incubated for 7 days in presence of tamoxifen by celltiter 96 aqueous one solution cell proliferation assay", "assay_type": "functional, cell-based", "settings": "time 7.0 day"}, "4T1 [25]": {"test_system": "4T1", "test": "Antitumor activity against mouse 4T1 cells implanted in BALB/C mouse assessed as inhibition of tumor size at 50 mg/kg,ip administrated daily for 14 days", "assay_type": "functional, organism-based", "settings": "time 14.0 day"}, "MCF7 [26]": {"test_system": "MCF7", "test": "Antitumor activity against human MCF7 cells xenografted in BALB/C mouse assessed as downregulation of PGR gene expression at 25 mg/kg,ip administrated every other day for 29 days by RT-qPCR analysis", "assay_type": "functional, organism-based", "settings": "time 29.0 day"}, "4T1 [27]": {"test_system": "4T1", "test": "Antitumor activity against mouse 4T1 cells implanted in BALB/C mouse assessed as downregulation of NRIP1 gene expression at 25 mg/kg,ip administrated daily for 14 days by RT-qPCR analysis", "assay_type": "functional, organism-based", "settings": "time 14.0 day"}, "MCF7 [28]": {"test_system": "MCF7", "test": "Synergistic antiproliferative activity against human MCF7 cells assessed as downregulation of GREB1 gene expression at 2.5 uM incubated for 6 hrs in presence of fulvestrant by RT-qPCR analysis", "assay_type": "functional, cell-based"}, "MCF7 [29]": {"test_system": "MCF7", "test": "Antitumor activity against human MCF7 cells xenografted in BALB/C mouse assessed as downregulation of NRIP1 gene expression at 50 mg/kg,ip administrated every other day for 29 days by RT-qPCR analysis", "assay_type": "functional, organism-based", "settings": "time 29.0 day"}, "4T1 [30]": {"test_system": "4T1", "test": "Potentiation of etoposide induced antiproliferative activity against mouse 4T1 cells assessed as upregulation of DDX58 gene expression at 2.5 uM in presence of etoposide by RT-qPCR analysis", "assay_type": "functional, cell-based"}, "4T1 [31]": {"test_system": "4T1", "test": "Antitumor activity against mouse 4T1 cells implanted in BALB/C mouse assessed as downregulation of C-Myc gene expression at 50 mg/kg,ip administrated daily for 14 days by RT-qPCR analysis", "assay_type": "functional, organism-based", "settings": "time 14.0 day"}}, "note": "Activity calls are given as the source filed them. No cut-off for these calls is given here.", "data": [{"smiles": "Cc1ccc(-c2nc(N3CCN(CCN(C)C)CC3)ncc2-c2ccoc2)cc1.Cl.Cl", "values": [{"measurement": "Activity", "setting": "4T1 [1]", "result": "Active"}, {"measurement": "Activity", "setting": "MDA-MB-231 [2]", "result": "Active"}, {"measurement": "Activity", "setting": "[3]", "result": "Non-Toxic"}, {"measurement": "Activity", "setting": "4T1 [4]", "result": "Active"}, {"measurement": "Activity", "setting": "MDA-MB-231 [5]", "result": "Active"}, {"measurement": "Activity", "setting": "[6]", "result": "Non-Toxic"}, {"measurement": "Activity", "setting": "MCF7 [7]", "result": "Active"}, {"measurement": "Activity", "setting": "[8]", "result": "Non-Toxic"}, {"measurement": "Activity", "setting": "MCF7 [9]", "result": "Active"}, {"measurement": "Activity", "setting": "4T1 [10]", "result": "Active"}, {"measurement": "Activity", "setting": "4T1 [11]", "result": "Active"}, {"measurement": "Activity", "setting": "[12]", "result": "Non-Toxic"}, {"measurement": "Activity", "setting": "MCF7 [13]", "result": "Active"}, {"measurement": "Activity", "setting": "[14]", "result": "Non-Toxic"}, {"measurement": "Activity", "setting": "MCF7 [15]", "result": "Active"}, {"measurement": "Activity", "setting": "4T1 [16]", "result": "Active"}, {"measurement": "Activity", "setting": "MCF7 [17]", "result": "Active"}, {"measurement": "Activity", "setting": "[18]", "result": "Non-Toxic"}, {"measurement": "Activity", "setting": "4T1 [19]", "result": "Active"}, {"measurement": "Activity", "setting": "4T1 [20]", "result": "Active"}, {"measurement": "Activity", "setting": "MCF7 [21]", "result": "Active"}, {"measurement": "Activity", "setting": "[22]", "result": "Non-Toxic"}, {"measurement": "Activity", "setting": "4T1 [23]", "result": "Active"}, {"measurement": "Activity", "setting": "MCF7 [24]", "result": "Active"}, {"measurement": "Activity", "setting": "4T1 [25]", "result": "Active"}, {"measurement": "Activity", "setting": "MCF7 [26]", "result": "Active"}, {"measurement": "Activity", "setting": "4T1 [27]", "result": "Active"}, {"measurement": "Activity", "setting": "MCF7 [28]", "result": "Active"}, {"measurement": "Activity", "setting": "MCF7 [29]", "result": "Active"}, {"measurement": "Activity", "setting": "4T1 [30]", "result": "Active"}, {"measurement": "Activity", "setting": "4T1 [31]", "result": "Active"}]}]}
